The results in this text go back to PubChem BioAssay AID179 (DTP/NCI, 2004).

In the test the test system is CEM cells HIV-1 protection, formazan growth assay. Kind of test: NCI AIDS Antiviral Assay. The note with it: for pIC50: measured here: growth of uninfected CEM cells. The method, boiled down:
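Soluble formazan readout of cell growth; CEM cells ± HIV-1; 5 drug concs. ≥50% protection → retest; ≥50% again = moderately active; reproducible 100% = confirmed active.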

pEC50, pIC50: −log10 of the molar value. Active and inactive are the calls of the source.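 Rule for the calls: active = compounds giving half or more protection of infected cells from virus-caused growth loss, again on retest; inactive = the rest.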

For the compound `N#Cc1ccc(NC(=NCC(=O)O)Nc2cccc3ccccc23)cc1`, the pEC50 (usually the EC50 on a negative log10 scale, so that one unit is a factor of ten) was less than 3.70 and the pIC50 (usually −log10 of the IC50, conventionally taken in molar units) was less than 3.70. Take `OCC1OCOC2COCOC12` (centres undefined): the pEC50 was less than 3.70 and the pIC50 is less than 3.70. As to `COC(=O)C(NC(=O)C(CC(=O)OC(C)(C)C)NC(=O)OC(C)(C)C)C(O)c1ccccc1` (centres undefined), the pEC50 is less than 3.70 and the pIC50 is less than 3.70. For the compound `C[C@]12CC[C@@H]3c4cc(Br)c(O)c(Br)c4CC[C@H]3[C@@H]1CCC2=O`, the pEC50 was less than 3.70 and the pIC50 is 4.48. On the same counts, the results for `O=C1OC(C(O)CO)C(O)=C1Nc1ccc(S(=O)(=O)c2ncc(NC3=C(O)C(C(O)CO)OC3=O)s2)cc1` (centres undefined) are less than 3.70 and 4.66. Regarding `COC(C(=O)C(O)C(C)O)C1Cc2cc3cc(OC4CC(OC5CC(O)C(O)C(C)O5)C(O)C(C)O4)c(C)c(O)c3c(O)c2C(=O)C1OC1CC(OC2CC(O)C(OC3CC(C)(O)C(O)C(C)O3)C(C)O2)C(O)C(C)O1` (centres undefined), the outcome was inactive. As for `Nc1nc(Cl)cc(OCC2CC(O)(CO)C2)n1` (centres undefined), the pEC50 is less than 3.70 and the pIC50 is less than 3.70. As to `CCOC(=O)C1=C(C)OC(=O)[C@@]2(OC)C=C(Cl)[C@@]12C`, the pEC50 is less than 3.70 and the negative logarithm of the IC50 (pIC50) was less than 3.70. On to `Nc1ccc(OCC(O)N2C(=O)c3ccccc3C2=O)cc1` (centres undefined), for which the pEC50 is less than 3.70 and the pIC50 was less than 3.70. Regarding `CCC(C)NC(=O)/C(=C\c1ccccc1O)NC(=O)c1ccccc1` (centres undefined), the pEC50 is less than 3.70 and the pIC50 was less than 3.70. Take `COCC(=O)OC1CCn2c1nc1c2C(=O)C(C)=C(NC(C)=O)C1=N` (centres undefined): the pEC50 was less than 3.70 and the pIC50 is 5.54. `CCOC(=O)/C=C1\c2ccccc2C(=O)N1CC(=O)OCC`: the outcome was inactive. For the compound `CC(=O)OC(C)(C)C1CC[C@]2(C)/C=C/C(C)C[C@@H](O)/C=C(\C)CC(O)C12` (some centres undefined), the result was inactive. On to `ClC(Cl)=C1C(=C(Cl)Cl)C(Cl)(Cl)C1(Cl)Cl`, for which the pEC50 is less than 4.28 and the pIC50 was 5.55. For `O=C1C(=C2SC(c3ccccc3)(c3ccccc3)c3ccccc32)C(=O)c2ccccc21`, in that order: less than 3.70 and less than 3.70.

Regarding `O=C(Cc1c(C(=O)Nc2ccccc2)sc(C(=O)Nc2ccccc2)c1CC(=O)Nc1ccccc1)Nc1ccccc1`, the outcome was inactive. Turning to `Nc1cccc2c1C(=O)c1cccc(NC(=O)c3ccc4c5c(nsc35)-c3ccccc3C4=O)c1C2=O`, the pEC50 was less than 4.81 and the pIC50 was less than 4.81.

As to `O=C(/C=C/c1ccsc1)c1cccs1`, the pEC50 was less than 3.70 and the pIC50 was 5.45. In the case of `CC1(CO)OC(n2cnc3c(N)ncnc32)C(O)C1O` (centres undefined), the pEC50 is less than 3.05 and the pIC50 was less than 3.05. Turning to `O=c1c(SCc2ccc(Cl)cc2)c(N2CCCCC2)cnn1-c1ccccc1`, the pEC50 was less than 4.62 and the negative-log IC50 (pIC50) is less than 4.62. For `O=c1ccc2cc3ccoc3c(O)c2o1`, the pEC50 is less than 3.35 and the pIC50 is 3.87. On the same counts, the results for `CC(=O)Nc1ccc(-n2[nH]c(=O)n(C)c2=O)cc1` are less than 4.00 and less than 4.00. For `CCN(CC)CC1CCCCN1CC(=O)N1c2ccccc2NC(=O)c2ccccc21` (centres undefined), in that order: less than 3.70 and less than 3.70. For `CCN(CC)CCCCC1CCN(CC(=O)N2CC(C)C(=O)Nc3ccccc32)CC1` (centres undefined), in that order: less than 3.60 and less than 3.60.

With `COc1ccc2c(c1)CC[C@@H]1C2CC[C@]2(C)C(=C=CP(=O)(O)O)CCC12` (some centres undefined), the pEC50 was less than 3.70 and the pIC50 is less than 3.70. In the case of `O=c1cc/c(=N/O)c(=O)/c1=N\O`, the pEC50 was 4.76 and the pIC50 is 3.82. For `COc1c(OC)c(OC)c(-c2cc(=O)c3c(OC)c(OC)c(OC)c(OC)c3o2)c(OC)c1OC`, in that order: less than 3.70 and 4.25.

As for `Cc1ccnc(NS(=O)(=O)c2ccc(N=Cc3ccccc3O)cc2)n1`, the pEC50 was less than 3.70 and the pIC50 is less than 3.70. As to `N#CC(c1ccccc1)N(CCCCCCN(C(=O)c1ccccc1)C(C#N)c1ccccc1)C(=O)c1ccccc1` (centres undefined), the pEC50 was less than 3.70 and the pIC50 is 4.21. As for `CCn1c(=O)c2nc(SC)sc2n(-c2ccc(C)cc2)c1=O`, the outcome was inactive.

As for `CC(=C\c1ccccc1)/C=C1\C(=O)NC(=S)N1C=C1C(=O)NC(=O)NC1=O`, the pEC50 is less than 3.70 and the pIC50 was less than 3.70. Turning to `Cc1cccc(-c2nnc(-c3nn(-c4ccccc4)c4nc5ccccc5nc34)o2)c1`, the pEC50 was less than 4.41 and the pIC50 was 4.71. As to `COC(=O)c1ccccc1OCc1cc(=O)oc2ccc(C)cc12`, the result was inactive. With `CC1(C)OC2OC(COC(=O)c3ccc(C#N)cc3)C3OC(C)(C)OC3C2O1` (centres undefined), the result was inactive. Same read-out and setting: next, `O=C1CC2C=C(S(=O)(=O)c3ccccc3)C1N(Cc1ccccc1)C2=O` (centres undefined): “inactive”; `CC(=O)CC(O)(C(F)(F)Cl)C(F)(F)Cl`: “inactive”.

On to `Cc1noc(NS(=O)(=O)c2ccc(N)cc2)c1C`, for which the pEC50 is less than 3.70 and the pIC50 is less than 3.70. On to `O=C1NC2OCC(O)C(O)C2O1` (centres undefined), for which the pEC50 was less than 3.70 and the pIC50 was less than 3.70.

For `COC(=O)[C@@]12OC[C@]34[C@H]([C@@H](O)[C@@H]1O)[C@@]1(C)CC(=O)C(O)=C(C)[C@@H]1C[C@H]3OC(=O)[C@H](OC(=O)/C=C(\C)C(C)C)[C@@H]24`, the pEC50 was less than 3.91 and the pIC50 is 7.41. On the same counts, the results for `COC1=NC2=NC(OC)=NC3=C(Br)C=C(Br)C(=N1)N23` are less than 5.01 and less than 5.01.

In the case of `O=C(N/C(=C\c1ccc([N+](=O)[O-])cc1)c1nc2ccccc2s1)c1ccccc1`, the pEC50 was less than 4.49 and the pIC50 was less than 4.49.

In the case of `Cc1c(NC(=O)CSC(=S)N(C)C)c(=O)n(-c2ccccc2)n1C`, the pEC50 was 4.05 and the pIC50 is less than 3.70.

Take `Cc1c(N2CCOCC2)nc2ccc(Cl)cc2c1-c1ccccc1`: the pEC50 is less than 5.37 and the pIC50 was less than 5.37.

As to `COC(=O)CC(C(C(C)=O)C(=O)OCc1ccccc1)N1C(=O)OCC1c1ccccc1` (centres undefined), the pEC50 is less than 4.00 and the pIC50 was 4.02. For `Cc1cnc2sn(-c3ccc([N+](=O)[O-])cc3)c(=O)c2c1`, in that order: 5.12 and 3.97. For `CC(C)CC(NC(=O)C(Cc1ccccc1)NC(=O)[C@H]1CC[C@H](NC(=O)C(Cc2ccc(OC(C)(C)C)cc2)NC(=O)OC(C)(C)C)C1)C(N)=O` (some centres undefined), the result was inactive. Still for that read-out and setting: next, `N/C(=N/N=C/c1cccnc1)NO`: “inactive”. For the compound `OCCCCCCCCCCCOc1ccc(C2OCC3(CO2)COC(c2ccc(OCCCCCCCCCCCO)cc2)OC3)cc1` (centres undefined), the pEC50 was less than 4.30 and the pIC50 is less than 4.30. On to `CC(=O)ON(C)C1CC(=O)OC1CO[Si](C)(C)C(C)(C)C` (centres undefined), for which the pEC50 was less than 3.70 and the pIC50 is 4.03.

Consider `CC(=O)O[C@@H]1CN(S(=O)(=O)c2ccc(C)cc2)C[C@@H]1C1CCCCC1`, for which the pEC50 was less than 3.70 and the pIC50 was 4.45.

For `O/N=C1/CCCC/C1=C\c1ccc(Cl)c(Cl)c1`, the result was inactive. `Sc1cccc2c(S)cccc12`: the pEC50 was less than 3.70 and the pIC50 is less than 3.70. As to `Cn1cc(C(=O)NCCC(=N)N)cc1NC(=O)C1=[N+](C)C=C(NC(=O)c2cccc(C(=O)NC3=CC(C(=O)Nc4cc(C(=O)NCCC(=N)N)cn4C)=[N+](C)C3)c2)C1`, the pEC50 is 5.46 and the pIC50 was 4.13. Regarding `C/C=C/C#CC#CC(O)C(/C=C/CCCO)OC1OC(COC2OC(CO)C(O)C(O)C2O)C(O)C(O)C1O` (centres undefined), the pEC50 was less than 3.35 and the pIC50 was less than 3.35.

Take `N#C/C(=C\N1CCNC1=S)c1nc2ccccc2s1`: the pEC50 was less than 3.70 and the negative logarithm of the IC50 (pIC50) was less than 3.70. With `CN(C)c1nn2c(-c3ccccc3)nnc2s1`, the result was inactive. For `Nc1nc(Cl)cc(NCC2(O)CCC2)n1`, the pEC50 is less than 3.70 and the pIC50 is less than 3.70. For `N#CC(C(=N/O)/C(=N\O)C(C#N)c1ccccc1)c1ccccc1` (centres undefined), the pEC50 was less than 3.10 and the pIC50 is 3.91.

Regarding `Cc1c(C(=O)c2ccccc2)n(COCCCO[Si](C)(C)C(C)(C)C)c(=O)[nH]c1=O`, the pEC50 is less than 3.70 and the pIC50 was 4.93. As for `CSc1nc2[nH]c(=O)c(C)nc2c(=O)[nH]1`, the pEC50 was less than 4.63 and the pIC50 is less than 4.63.

In the case of `CC1=Nc2c([nH]c(=S)[nH]c2=O)NC(c2ccc(Cl)c(Cl)c2)C1` (centres undefined), the pEC50 is less than 5.11 and the pIC50 is less than 5.11. As to `Cc1ccc(/C(O)=C/c2nc3ccccc3oc2=O)cc1`, the pEC50 was less than 3.70 and the pIC50 is 4.26. Take `CCn1c(SCc2nnc(Nc3ccccc3)s2)nc2ccccc2c1=O`: the pEC50 is less than 3.70 and the pIC50 is 4.16. In the case of `COc1ccc2c(c1)N(C(C)=O)CN1C(=O)CCC21` (centres undefined), the result was inactive. On the same count and under the same terms, next, `CC(C#N)NCc1ccccc1` (centres undefined): “inactive”; `CC1c2[nH]c3ccccc3c2CCN1O` (centres undefined): “inactive”. On the same count and under the same terms, next, `CC1CCCC(C)C(Sc2ccccc2)=C1Sc1ccccc1` (centres undefined): “inactive”.

Take `CCC[CH2][Sn]([CH2]CCC)([O]C(=O)c1ccc(C)c(N)c1)[O]C(=O)c1ccc(C)c(N)c1`: the pEC50 is less than 4.73 and the pIC50 is 6.34. For `CN(C)CCCNc1cc[n+](C)c2cccc([N+](=O)[O-])c12`, in that order: less than 3.70 and 4.98. For `ClC1=NN=C(c2c[nH]c3ccccc23)CC1NCc1ccccc1` (centres undefined), in that order: less than 3.70 and less than 3.70. For `Cc1cc(S(=O)(=O)NC2=NCCCN2)c(S)cc1Cl`, the pEC50 is less than 3.59 and the pIC50 was 4.19.

Regarding `CCOC(=O)Cc1csc(NC(NC(=O)OCC)(C(=O)OCC)C(F)(F)F)n1` (centres undefined), the pEC50 was less than 3.70 and the pIC50 is less than 3.70.

As to `O=CCCn1[nH]c(=O)ccc1=O`, the pEC50 is less than 2.83 and the pIC50 was 2.85.
